Literature values in patent US12296049B2, “Immediate release dosage form” (Kenvue Brands LLC, priority 2019, dated 2025).

Details: at lower acidic pH it precipitates

SMILES: COc1ccc2cc([C@H](C)C(=O)O)ccc2c1 [naproxen sodium]
- pH at which the drug stays in solution: above 5.4
